Measurements published in US6120997A, “Nucleic acid binders having an hydroxyamine motif” (The Scripps Research Institute, priority 1998, dated 2000).
pKd: −log10 of the molar value. “Also recorded” adds a separate entry of the source. Where two headings read alike, the source gives them in different places.

Columns and labels:
RBE3 = assay: SPR binding of aminoglycosides to RBE3; design: species or system HIV-1; settings: 25 C; for pKd: pH 7.0, 10 mM HEPES, 150 mM NaCl, 0.1 mM EDTA, Scatchard slope; for Scatchard plot x-axis intercept (RBE3): pH 7.0, 150 mM NaCl
Experimental: (§1) FIGS. 9A and 9B illustrate neomycin B binding to RBE3, RBE3-neg and wt-RRE-II. (A) Semilogarithmic plot. […] Conditions: pH 7.0, 10 mM HEPES, 150 mM NaCl, 0.1 mM EDTA, […].
(§2) FIGS. 10A and 10B illustrate paromomycin binding to RBE3, RBE3-neg and wt-RRE-II. (A) Semilogarithmic plot; the dashed line indicates the binding of neomycin B to wt-RRE-II for comparison (B) Scatchard plot. […] Conditions: pH 7.0, 10 mM HEPES, 150 mM NaCl, 0.1 mM EDTA, […].
(§3) Binding of the aminoglycoside to all three RNA oligonucleotides is observed starting in the low nanomolar concentration range and is non-saturable over the concentration range investigated. […] The high degree of non-specific binding is not surprising considering that aminoglycosides are highly charged polycations that tend to associate nonspecifically with the polyanionic phosphate backbone of RNA. […] Data points corresponding to 0.5 or more equivalents of neomycin B represent equilibrium values and can be analyzed with respect to stoichiometry and affinity of aminoglycoside binding. […] Both sequences bind one molecule of neomycin B with submicromolar affinity followed by weaker association with several additional equivalents of the antibiotic.
(§4) Samples were prepared by serial dilutions from stock solutions in RNase free microfuge tubes (Ambion) and were centrifuged at 14000 rpm for degassing. Buffers were filtered through sterile 0.2 &m nylon membranes (Nalgene) under vacuum, except for BIA certified HBS buffer (Pharmacia Biosensor AB) which was used as obtained. All procedures for binding studies were automated as methods using repetitive cycles of sample injection and regeneration. Typically, buffer was injected in the first two cycles to establish a stable baseline value. Samples were injected at a flowrate of 5-10 &L/min using either the KINJECT or the COINJECT command. All aminoglycoside and Rev27 samples were injected from autoclaved 7 mm plastic vials that were capped with pierceable plastic crimp caps. To minimize carry over, samples were injected in order of increasing concentration. The running buffer was identical to the injection buffer, except for the salt dependence study where a single running buffer was used for all injections. Expected values for the equilibrium response of one equivalent of analyte were calculated from the relative molecular weight of the analyte and the immobilized RNA ligand in each flowcells. These values were adjusted by multiplying with a factor of 0.8 or 0.57 for Rev27 or aminoglycosides respectively. These factors arise from the different molar refractive indices of RNA and the analyte and were determined from the Scatchard plot x-axis intercepts of the 1:1 binding isotherms for Rev27 and neomycin B.
(§5) Binding Studies with Aminoglycosides. […]

RBE3-neg = assay: SPR binding of aminoglycosides to RBE3-neg; settings: 25 C; for pKd: pH 7.0, 10 mM HEPES, 150 mM NaCl, 0.1 mM EDTA, Scatchard slope; for Scatchard plot x-axis intercept (RBE3-neg): pH 7.0, 150 mM NaCl
Experimental: as §1, §2, §3, §4, §5

wt-RRE-II = assay: SPR binding of aminoglycosides to wt-RRE-II; design: species or system HIV-1; settings: for dissociation from wt-RRE-II after 1 min (in words): aminoglycoside-free buffer, pH 7.4, 150 mM NaCl
Experimental: as §1, §2
FIG. 11 illustrates the kinetic stability of wt-RRE-II complexes with neomycin B vs. paromomycin. […] Data points were taken after 1 min of dissociation.
as §3, §4
Binding Studies with Aminoglycosides.
Neomycin B sulfate (Fluka) was converted to the free base by passing it through Amberlite IRA 400 (OH-- form) and purified by ion exchange chromatography on Dowex 1-X2 100 to remove neomycin C; the purity of neomycin B was verified by NMR in D2 O. Paromomycin sulfate was obtained from Sigma and used as received. Samples were prepared by dilution from 10 mM stock solutions in injection buffer (10 mM HEPES, pH 7.4, 150 mM NaCl, 3.4 mM EDTA). Data points were taken after an association phase of 30 min. A 2 min regeneration pulse of 150 mM Na2 SO4 in injection buffer was used between injections. […]

Neo16-bd = assay: SPR binding of aminoglycosides to Neo16-bd aptamer
Experimental: Conditions: 10 mM HEPES (pH 7.4), 0.1 mM EDTA and NaCl as indicated.
The binding of aminoglycosides to RNA is likely to involve substantial ionic contributions and therefore should be strongly influenced by competing buffer ions. […] We studied the salt dependence of neomycin B binding to RBE3, RBE3-neg and Neo16-bd (FIG. 14) by varying the concentration of NaCl included in the injection buffer (10 mM HEPES, pH 7.4, 0.1 mM EDTA). […] This neomycin binding motif was obtained by in vitro selection under conditions of high ionic strength.
To further improve our understanding of specific aminoglycoside recognition, we have also included an artificial aminoglycoside receptor that was evolved in vitro to recognize an aminoglycoside. A number of RNA aptamers for small molecules have been reported in recent years. Among them are aptamers that recognize the aminoglycosides tobramycin, lividomycin and kanamycin.
For comparison, the corresponding values for AS-wt are also included.
(§6) General Procedures for SPR Binding Studies done in Example 5. Samples were prepared by serial dilutions from stock solutions in RNase free microfuge tubes (Ambion) and were centrifuged at 14000 rpm for degassing. Unless otherwise noted, all binding studies were carried out using HBS buffer (Pharmacia Biosensor AB) which was used as obtained. All procedures for binding studies were automated as methods using repetitive cycles of sample injection and regeneration. Typically, buffer was injected in the first two cycles to establish a stable baseline value. Samples were injected at a flowrate of […] using either the KINJECT command. All aminoglycoside samples were injected from autoclaved 7 mm plastic vials that were capped with pierceable plastic crimp caps. To minimize carry over, samples were injected in order of increasing concentration. The running buffer was identical to the injection buffer.

[1] = test system: wt-RRE-II, RBE3 and RBE3-neg; assay: SPR binding of aminoglycosides to RRE related RNAs; design: species or system HIV-1
Experimental: Samples were prepared by serial dilutions from stock solutions in RNase free microfuge tubes (Ambion) and were centrifuged at 14000 rpm for degassing. […] All procedures for binding studies were automated as methods using repetitive cycles of sample injection and regeneration. Typically, buffer was injected in the first two cycles to establish a stable baseline value. […] To minimize carry over, samples were injected in order of increasing concentration.
as §6

SMILES	pKd (RBE3; read-out: Kd (RBE3), neomycin B)	Scatchard plot x-axis intercept (RBE3) (RBE3)	pKd (RBE3-neg; read-out: Kd (RBE3-neg), neomycin B)	Scatchard plot x-axis intercept (RBE3-neg) (RBE3-neg)	number of molecules/sites bound with submicromolar affinity (wt-RRE-II) (wt-RRE-II; SPR)	dissociation from wt-RRE-II after 1 min (in words) (wt-RRE-II)	relative binding affinity for wt-RRE-II (in words) (wt-RRE-II; comparison of aminoglycosides)	selectivity for binding Neo16-bd vs. RBE3 or RBE3-neg (Neo16-bd; 250 mM NaCl, 10 mM HEPES, pH 7.4, 0.1 mM EDTA)	specificity of Neo16bd relative to RBE3 (Neo16-bd; HBS buffer + 150 mM NH4Cl)	pKd (Neo16-bd; HBS buffer + 150 mM NH4Cl, read-out: Kd, Neo16bd, high salt)	discrimination between the three RRE related sequences (in words) [1]	weaker binding to the three RRE related RNAs than to AS-wt [1] [fold]	pKd (RBE3; read-out: Kd (RBE3), paromomycin)	pKd (RBE3-neg; read-out: Kd (RBE3-neg), paromomycin)	discrimination between paromomycin and neomycin derivatives of the same charge, Neo16bd (Neo16-bd)	lower affinity compared to neomycin B ([1]; wt-RRE-II, RBE3 and RBE3-neg, equilibrium binding)
NC[C@@H]1O[C@H](O[C@H]2[C@@H](O)[C@H](O[C@@H]3[C@@H](O)[C@H](N)C[C@H](N)[C@H]3O[C@H]3O[C@H](CN)[C@@H](O)[C@H](O)[C@H]3N)O[C@@H]2CO)[C@H](N)[C@@H](O)[C@@H]1O [Neomycin B]	6.68	1.01	6.80	0.98	three different sites, each with a submicromolar dissociation constant; also recorded: three molecules of neomycin B are bound with submicromolar affinity; also recorded: up to three molecules	apparent 1:1 binding isotherm	highest affinity	approximately 100 fold	greater than 300 fold	> 8.00	no discrimination	12	–	–	–	–
NC[C@@H]1O[C@H](O[C@H]2[C@@H](O)[C@H](O[C@@H]3[C@@H](O)[C@H](N)C[C@H](N)[C@H]3O[C@H]3O[C@H](CO)[C@@H](O)[C@H](O)[C@H]3N)O[C@@H]2CO)[C@H](N)[C@@H](O)[C@@H]1O [Paromomycin]	–	1.04	–	1.05	–	No apparent 1:1 binding isotherm is discernible	–	–	–	–	–	–	5.55	5.51	greater than 20 fold	approximately 15 fold
